Test results: patent US4557754A, “Bis-(N,N-dimethyl-N-carbodecyloxymethyl-N-ethylene-ammonium)-sulphide dichloride and use thereof” (priority 1980, dated 1985)

How the values were obtained:
[1] = Treatment of inflammatory diseases of the middle ear; format: in vivo, men; conditions: for Recovery with comparator solutions: in a great number of cases; for Irrigations of the tympanic cavity required, relative to the preparation: solutions, for the same purpose
Protocol: was tested in treating inflammatory diseases of the middle ear in men: acute otitis and antritis media purulenta, chronic purulent mesotympanitis, and chronic purulent epitympanitis.
The treatment was applied to 65 patients.
The treatment procedure consisted in thorough and copious irrigation (with the help of Hartmann's cannula or blunt-ended needle) of the middle ear, attic, and Eustachian tube for maximum removal of purulent exudate and cholesteatoma masses.

Escherichia coli = assay: Antimicrobial activity, series dilutions in liquid nutrient media; format: cell-based; conditions: 10 strains
Protocol: (§1) Antimicrobial properties of said preparation were investigated by a classical method of series dilutions in standard liquid nutrient media.
(§2) The activity of the above preparation was tested by its action on staphylococci, Escherichia coli, and intestinal group microorganisms.

Proteus morgani = assay: as above; format: cell-based; conditions: 4 strains
Protocol: as §1, §2

Proteus vulgaris = assay: as above; format: cell-based; conditions: 2 strains
Protocol: as §1, §2

Salmonella sp. = assay: as above; format: cell-based; conditions: 7 strains
Protocol: as §1, §2

Shigella sonnei = assay: as above; format: cell-based; conditions: 7 strains
Protocol: as §1, §2

Staphylococcus albus = assay: as above; format: cell-based; conditions: 20 strains
Protocol: as §1, §2

Staphylococcus aureus = assay: as above; format: cell-based; conditions: 20 strains
Protocol: as §1, §2

Acute toxicity test [2] = format: in vivo, white mice; conditions: mouse, in vivo, mice, 24 hours
Protocol: (§3) Bis-(N,N-dimethyl-N-carbodecyloxymethyl-N-ethyleneammonium)-sulphide dichloride was tested for toxicity in an acute test on rats of both sexes with an average mass of 200 to 250 g and on white mice of both sexes with an average mass of 22 to 25 g with enteral and intraperitoneal administrations. Aqueous solutions of the above preparation (from 10 to 5000 mg per kg of animal weight) were used for enteral and intraperitoneal administration. Each dosage was tried on five animals. Animal death rate was registered 24 hours after the administration of the above solutions.

Mice = assay: Acute toxicity test; format: in vivo, white mice; conditions: for LD100: mice, 24 hours
Protocol: as §3

Acute toxicity test [3] = format: in vivo; conditions: rat, in vivo, rats
Protocol: as §3

Rats [4] = assay: Acute toxicity test; format: in vivo; conditions: 24 hours
Protocol: as §3

calves = assay: Chronic toxicity test, intravenous; format: in vivo; conditions: 10 mg per kg daily for 30 days
Text: Test group consisted of 10 calves, the other 10 calves to which the above preparation was not prescribed making up a control group. The calves of both groups were kept in the same conditions. General state and behaviour of the calves, rate of gain were controlled and peripheric blood counts (hemoglobin, erythrocytes, leucocytes, thrombocytes, differential blood count) were made daily during the test. To determine the functional state of liver, kidneys, and pancreas, certain biochemical characteristics of the urine (protein, sugar, and biliary pigments content) and blood (sugar, cholesterol, bilirubin, urea, alkaline phosphatase, and chlorides content) were studied.
At the end of the test period the test group animals were killed and their internal organs were studied by macro- and microscopic techniques.

[5] = Stability of aqueous solutions / retention of antimicrobial activity; format: physicochemical
Text: Aqueous solutions of the preparation were stable.

Solubility = format: physicochemical
lettuce = assay: Effect on development of sprouts, agar medium in Petri dishes; format: in vivo; parameters: Germination capacity, lettuce: unit not given here; conditions: for Plant parts length, lettuce root / Plant parts length, lettuce stalk: 7 days
Protocol: (§4) The effect of the preparation was studied for 7 days under laboratory conditions on lettuce and oats plants.
(§5) The standards used in the tests were chlorocholine chloride whose structure is close to the studied chemical compound and heteroauxin phytohormone. Experiments on lettuce and oats growing in the presence of the above substances at a concentration of from 0.1 to 0.00001 wt.% were performed in Petri dishes with the use of agar medium as a substrate.
(§6) The seeds were placed into Petri dishes on solidified agar containing the test substance in the concentration indicated. The seeds germinated in a thermostat for 3 days at a temperature of from 22° to 24° C. Petri dishes with the sprouts were then placed for further growth into an exhausting hood with illumination for 4 days, whereafter the length of the roots, stalks and leaves of the sprouts was measured.

oats = assay: as above; format: in vivo; parameters: Germination capacity, oats: unit not given here; conditions: for Plant parts length, oats leaf / Plant parts length, oats root: 7 days
Protocol: as §4, §5, §6

Rats [6] = assay: Toxicity (LD50) compared with chlorocholine chloride; format: in vivo; conditions: versus chlorocholine chloride
[7] = test system: staphylococci, Escherichia coli, and intestinal group microorganisms; assay: Antimicrobial action, overall; format: cell-based; conditions: analysis of the test results
Protocol: as §1, §2

Rats [8] = conditions: cited from earlier work
[9] = read-out: Average bactericidal concentration
[10] = read-out: Average bacteriostatic concentration

With CC1(C)S[C@@H]2[C@H](NC(=O)Cc3ccccc3)C(=O)N2[C@H]1C(=O)O [penicillin] the “Recovery with comparator solutions” value [1] was “did not result in recovery” and the “Irrigations of the tympanic cavity required, relative to the preparation” value [1] was “twice as many or even more”.
CCCCCCCCCCOC(=O)C[N+](C)(C)CCSCC[N+](C)(C)CC(=O)OCCCCCCCCCC [bis-(N,N-dimethyl-N-carbodecyloxymethyl-N-ethyleneammonium)-sulphide dichloride] showed an MBC (Escherichia coli; [9]) of 6.4 µg/mL, an MIC (Escherichia coli; [10]) of 3.9 µg/mL and an MBC (Proteus morgani; [9]) of 50.7 µg/mL. The MIC (Proteus morgani; [10]) was 50.7 µg/mL, the MBC (Proteus vulgaris; [9]) was 62.5 µg/mL and the MIC (Proteus vulgaris; [10]) was 62.5 µg/mL. The MBC (Salmonella sp.; [9]) was 31.2 µg/mL, the MIC (Salmonella sp.; [10]) was 31.2 µg/mL and the MBC (Shigella sonnei; [9]) was 28.4 µg/mL. For the same compound, the MIC (Shigella sonnei; [10]) was 5.85 µg/mL, the MBC (Staphylococcus albus; [9]) was 1.67 µg/mL and the MIC (Staphylococcus albus; [10]) was 0.6 µg/mL. The MBC (Staphylococcus aureus; [9]) was 2.63 µg/mL, the MIC (Staphylococcus aureus; [10]) was 0.76 µg/mL and the LD50 at 24 h (Acute toxicity test [2]; ip, intraperitoneal) was 54.1 mg/kg. For the same compound, the LD50 at 24 h (Acute toxicity test [2]; po, enteral) was 1220 mg/kg, the “Toxicity group, overall” value (Mice; analysis of the test results (mice, rats, calves)) was “low-toxic” and the LD100 (Mice; enteral) was 2500 mg/kg. It also gave an LD100 (Mice; intraperitoneal) of 70.0 mg/kg, an LD50 at 24 h (Acute toxicity test [3]; ip, intraperitoneal) of 67.7 mg/kg and an LD50 at 24 h (Acute toxicity test [3]; po, enteral) of 2660 mg/kg. The LD100 (Rats [4]; enteral) was 3500 mg/kg, the LD100 (Rats [4]; intraperitoneal) was 80.0 mg/kg and the “Pathologic changes at autopsy, macro- and microscopic study” value (calves) was “no pathologic changes”. For the same compound, the “Changes in the calves under chronic test conditions” value (calves; 0.2 wt.% in sodium chloride solution) was “did not cause significant changes”, the “Activity after storage of solutions” value ([5]; 1% and 0.1% solutions, 6 months) was “did not lose its activity” and the “Stability of aqueous solutions” value ([5]; aqueous solutions) was “stable”. For the same compound, the “Antimicrobial activity as a function of pH” value ([5]; pH 5 to 8) was “remains unchanged”, the “Antimicrobial activity after autoclaving” value ([5]; single and double autoclaving, 60 minutes at 2.5 atm) was “did not alter the antimicrobial activity” and the “Solubility in diethyl ether” value (Solubility; diethyl ether) was “insoluble”. The “Solubility in lower alcohols” value (Solubility; lower alcohols) was “soluble”, the Solubility in water (Solubility; water) was “soluble” and the “Germination capacity, lettuce” value (lettuce; 0.00001 wt. %) was 86. The “Plant parts length, lettuce root” value (lettuce; 0.00001 wt. %) was 91, the “Plant parts length, lettuce stalk” value (lettuce; 0.00001 wt. %) was 91 and the “Germination capacity, lettuce” value (lettuce; 0.0001 wt. %) was 89. The “Plant parts length, lettuce root” value (lettuce; 0.0001 wt. %) was 96, the “Plant parts length, lettuce stalk” value (lettuce; 0.0001 wt. %) was 99 and the “Germination capacity, lettuce” value (lettuce; 0.001 wt. %) was 100. For the same compound, the “Plant parts length, lettuce root” value (lettuce; 0.001 wt. %) was 88, the “Plant parts length, lettuce stalk” value (lettuce; 0.001 wt. %) was 91 and the “Germination capacity, lettuce” value (lettuce; 0.01 wt. %) was 34. The “Plant parts length, lettuce root” value (lettuce; 0.01 wt. %) was 15, the “Plant parts length, lettuce stalk” value (lettuce; 0.01 wt. %) was 38 and the “Germination capacity, lettuce” value (lettuce; 0.1 wt. %) was 0. The “Plant parts length, lettuce root” value (lettuce; 0.1 wt. %) was 2, the “Plant parts length, lettuce stalk” value (lettuce; 0.1 wt. %) was 0 and the Herbicidal action (lettuce; 0.1 wt.%, dicotyledonous plants) was “selective herbicide”. The Phytoncidal action (lettuce; lettuce (dicotyledonous)) was “more phytoncidal”, the “Germination capacity, oats” value (oats; 0.00001 wt. %) was 91 and the “Plant parts length, oats leaf” value (oats; 0.00001 wt. %) was 105. For the same compound, the “Plant parts length, oats root” value (oats; 0.00001 wt. %) was 100, the “Germination capacity, oats” value (oats; 0.0001 wt. %) was 87 and the “Plant parts length, oats leaf” value (oats; 0.0001 wt. %) was 99. The “Plant parts length, oats root” value (oats; 0.0001 wt. %) was 86, the “Germination capacity, oats” value (oats; 0.001 wt. %) was 87 and the “Plant parts length, oats leaf” value (oats; 0.001 wt. %) was 96. For the same compound, the “Plant parts length, oats root” value (oats; 0.001 wt. %) was 88, the “Germination capacity, oats” value (oats; 0.01 wt. %) was 86 and the “Plant parts length, oats leaf” value (oats; 0.01 wt. %) was 93. For the same compound, the “Plant parts length, oats root” value (oats; 0.01 wt. %) was 54, the “Germination capacity, oats” value (oats; 0.1 wt. %) was 87 and the “Plant parts length, oats leaf” value (oats; 0.1 wt. %) was 55. The “Plant parts length, oats root” value (oats; 0.1 wt. %) was 6, the “Inhibition of growth of roots versus leaves” value (oats; oats (monocotyledonous)) was “more strongly inhibits the growth of roots than that of leaves” and the “Toxicity compared with chlorocholine chloride” value (Rats [6]) was “much lower”. The “Antimicrobial action, overall” value [7] was “strong antimicrobial action”.
For C[N+](C)(C)CCCl.[Cl-] [Chlorocholine chloride], the “Germination capacity, lettuce” value (lettuce; 0.0001 wt. %) was 98, the “Plant parts length, lettuce root” value (lettuce; 0.0001 wt. %) was 104 and the “Plant parts length, lettuce stalk” value (lettuce; 0.0001 wt. %) was 98. For the same compound, the “Germination capacity, lettuce” value (lettuce; 0.001 wt. %) was 94, the “Plant parts length, lettuce root” value (lettuce; 0.001 wt. %) was 102 and the “Plant parts length, lettuce stalk” value (lettuce; 0.001 wt. %) was 110. The “Germination capacity, lettuce” value (lettuce; 0.01 wt. %) was 94, the “Inhibition of root development” value (lettuce; 0.01 wt. %) was “does not inhibit root development” and the “Plant parts length, lettuce root” value (lettuce; 0.01 wt. %) was 101. The “Plant parts length, lettuce stalk” value (lettuce; 0.01 wt. %) was 99, the “Germination capacity, oats” value (oats; 0.0001 wt. %) was 91 and the “Plant parts length, oats leaf” value (oats; 0.0001 wt. %) was 94. For the same compound, the “Plant parts length, oats root” value (oats; 0.0001 wt. %) was 102, the “Germination capacity, oats” value (oats; 0.001 wt. %) was 99 and the “Plant parts length, oats leaf” value (oats; 0.001 wt. %) was 97. The “Plant parts length, oats root” value (oats; 0.001 wt. %) was 92, the “Germination capacity, oats” value (oats; 0.01 wt. %) was 98 and the “Plant parts length, oats leaf” value (oats; 0.01 wt. %) was 96. The “Plant parts length, oats root” value (oats; 0.01 wt. %) was 94 and the LD50 (Rats [8]) was 250 mg/kg.
With [H]/N=C(/N)N[C@H]1[C@H](O)[C@@H](O)[C@H](O[C@@H]2O[C@@H](C)[C@](O)(C=O)[C@H]2O[C@@H]2O[C@@H](CO)[C@H](O)[C@@H](O)[C@@H]2NC)[C@@H](N/C(N)=N\[H])[C@@H]1O [streptomycin] the “Recovery with comparator solutions” value [1] was “did not result in recovery” and the “Irrigations of the tympanic cavity required, relative to the preparation” value [1] was “twice as many or even more”.
For O=C(O)Cc1c[nH]c2ccccc12 [Heteroauxine], the “Germination capacity, lettuce” value (lettuce; 0.0001 wt. %) was 81, the “Plant parts length, lettuce root” value (lettuce; 0.0001 wt. %) was 88 and the “Plant parts length, lettuce stalk” value (lettuce; 0.0001 wt. %) was 92. For the same compound, the “Germination capacity, lettuce” value (lettuce; 0.001 wt. %) was 55, the “Plant parts length, lettuce root” value (lettuce; 0.001 wt. %) was 27 and the “Plant parts length, lettuce stalk” value (lettuce; 0.001 wt. %) was 24. The “Germination capacity, lettuce” value (lettuce; 0.01 wt. %) was 0, the “Plant parts length, lettuce root” value (lettuce; 0.01 wt. %) was 0 and the “Plant parts length, lettuce stalk” value (lettuce; 0.01 wt. %) was 0. For the same compound, the “Germination capacity, oats” value (oats; 0.0001 wt. %) was 100, the “Plant parts length, oats leaf” value (oats; 0.0001 wt. %) was 92 and the “Plant parts length, oats root” value (oats; 0.0001 wt. %) was 88. The “Germination capacity, oats” value (oats; 0.001 wt. %) was 102, the “Plant parts length, oats leaf” value (oats; 0.001 wt. %) was 67 and the “Plant parts length, oats root” value (oats; 0.001 wt. %) was 28. For the same compound, the “Germination capacity, oats” value (oats; 0.01 wt. %) was 84, the “Plant parts length, oats leaf” value (oats; 0.01 wt. %) was 35 and the “Plant parts length, oats root” value (oats; 0.01 wt. %) was 19.
